Where two headings read alike, the source gives them in different places.
Legend:
[1] = molecular target: T1, serotonin 5-HT2C receptor (Rattus norvegicus, UniProt P08909); assay: radioligand binding assay, 5-HT2C, [3H]mesulergine; conditions: rat brain cortex; read-out: Ki ± SD, 5-HT2C [3H]Mesulergine
T1 construct: serotonin 5-HT2C receptor, [^3H]mesulergine, rat brain cortex; from tissue; host or cells: rat brain cortex
T1 sequence (P08909 33-460): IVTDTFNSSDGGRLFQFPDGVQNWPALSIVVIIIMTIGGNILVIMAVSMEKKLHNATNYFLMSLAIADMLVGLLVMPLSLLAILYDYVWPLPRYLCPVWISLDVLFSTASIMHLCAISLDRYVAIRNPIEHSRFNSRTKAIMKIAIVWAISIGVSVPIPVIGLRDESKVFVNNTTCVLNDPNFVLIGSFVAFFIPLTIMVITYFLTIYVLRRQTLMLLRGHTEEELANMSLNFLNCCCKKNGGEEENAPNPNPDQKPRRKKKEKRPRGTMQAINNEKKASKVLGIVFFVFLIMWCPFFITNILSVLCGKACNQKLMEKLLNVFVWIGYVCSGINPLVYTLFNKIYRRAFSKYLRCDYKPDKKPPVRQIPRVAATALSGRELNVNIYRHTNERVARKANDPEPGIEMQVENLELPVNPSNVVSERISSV
Protocol: All reactions were monitored by TLC, carried out on Merck 60G F254 plates with fluorescent indicator and the plates were visualized with UV light (254 nm). Each final compound and intermediate was purified by silica gel column chromatography (Macherey-Nagel 60 0,063–0,2 mm/70–230 mesh). […] Unless otherwise stated, all spectra were recorded in CDCl3. Chemical shifts are reported in ppm using Me4Si as internal standard. The following abbreviations are used to describe peak patterns when appropriate: s (singlet), d (doublet), t (triplet), m (multiplet), q (quartet), qt (quintet), dd (double doublet), ddd (double dd), bs (broad singlet). Mass spectra of the final products were performed on LTQ Orbitrap XL™ Fourier transform mass spectrometer (FTMS) equipped with ESI ION MAX™ source (Thermo Fisher, San José, USA). Melting points were determined using a Buchi B-540 hot-stage instrument and are uncorrected. […] All the compounds were dissolved in 5% DMSO. The following specific radioligands and tissue sources were used: (a)serotonin 5-HT1A receptor, [^3H]-8-OH-DPAT, rat brain cortex; (b) serotonin 5-HT2A receptor, [^3H]ketanserin, rat brain cortex; (c)serotonin 5-HT2C receptor, [^3H]mesulergine, rat brain cortex. Non-specific binding was determined as described in the experimental section, and specific binding as the difference between total and non-specific binding. […] The IC50 values obtained were used to calculate apparent inhibition constants (Ki) by the method of Cheng and Prussoff, from the following equation: Ki = IC50/(1 + S/KD) where S represents the concentration of the hot ligand used and KD its receptor dissociation constant (KD values, obtained by Scatchard analysis, were calculated for each labeled ligand). Radioligand binding assays for 5-HT1A were performed following a published procedure. 5-HT2A and 5-HT2C binding assays were performed reported by Herndon et al..

MCF7 cells = assay: MCF7 cell viability, sulforhodamine B assay; assay type: cell-based, human; conditions: for IC50: Homo sapiens, MCF7
Protocol: MCF7 (ER^+, PR^+, HER2^−), SKBR3 (ER^−, PR^+, HER2^+) and MDA-MB231 (ER^−, PR^−, HER2^−) human BC cells and MCF10A non-cancer breast epithelial cells were available in our laboratory. MCF7, SKBR3 and MDA-MB231 cells were cultured in DMEM, supplemented with 10% FBS, 2 mM glutamine, 100 units/ml penicillin and 100 units/ml streptomycin. MCF10A cells were cultured in MEBM, supplemented with 0.4% BPE, 0.1% hEGF, 0.1%, Insulin, 0.1% Hydrocortisone and 0.1% GA-1000. […] Treatment with SER were carried out in culture conditions. Treatment with Tamoxifen and/or SER were carried out upon 48 h estrogen starvation in phenol-red free medium supplemented with 10% Charcoal Stripped (C/S) FBS, 2 mM glutamine, 100 units/ml penicillin and 100 units/ml streptomycin.
(§1) Cells were fixed with 50% trichloroacetic acid for at least 2 h at 4 °C, washed with distilled and de-ionized water, air-dryed and stained 30 min with 0.4% sulforhodamine B in 1% acetic acid. Unbound dye was removed and 10 mM tris-HCl solution (pH 7.5) was added to dissolve the protein-bound dye. Cell survival was assessed by optical density determination at 510 nm using a microplate reader.
After 48 and 72 h, cell viability was assessed by sulforhodamine B assay (see Methods).

MCF7-R cells = assay: Tamoxifen-resistant MCF7-R cell viability, sulforhodamine B assay; assay type: cell-based, human; conditions: SER 20 μM; for effect on MCF7-R cells if used alone (viability): E2 100 nM, 72 h; for effect on viability of MCF7-R cells in co-treatment with Tamoxifen: Tamoxifen 5 μM, E2, 72 h
Protocol: as §1
MCF7 cells were cultured for 4 months in phenol-red free medium supplemented with 10% (C/S) FBS and continuously exposed to Tamoxifen (1 μM). […] To further validate the degree of drug resistance, the expression levels of ABCC1, ABCG1 and ABCG2 – members of ABC transporter family known as involved in multi-drug resistance – were evaluated by Quantitative Real-Time PCR (qPCR; see below) upon cell treatment with 5 μM Tamoxifen for 72 h.
Fig. 9 Effect of SER79 and SER68 on Tamoxifen-resistant (MCF7-R) cells. a Estrogen starved MCF7-R were treated with SER79 (20 μM, 5 μM) or SER68 (20 μM) in presence of E2 (100 nM). b Estrogen-starved MCF7-R were treated with Tamoxifen (5 μM) in presence of E2 and SER79 (20 μM) or SER68 (20 μM). a,b As positive control, the cells were treated with E2 alone, in absence or in presence of SER (dotted line). After 72 h, cell viability was assessed by sulforhodamine B assay (see Methods). The results were reported as percentage of viable cells compared to positive control, considered as maximum viability (100%). c mRNA levels of CTGF were determined by qPCR (see Methods and Table 1) in MCF7-R cells upon treatment with SER68 (20 μM). Data were normalized on Ribosomal Protein S23 (Rps23) gene as internal standard and reported as CTGF mRNA levels in MCF7-R. a-c Graphs represent the mean ± SD of at least three independent triplicate experiments. * denotes statistically significant values compared with (b) positive control or (c) MCF7 cells (*adjp<0.05; **adjp<0.001). # denotes statistically significant values compared with untreated MCF7-R (#pval<0.05) […]
Figure S3. Establishment of MCF7 Tamoxifen re sista n t(M C F7-R) cells. MCF7 cells were cultured with Tamoxifen (1µM), in absence of E2, for 4 months (M C F7-R). (a-b) MCF7 and MCF7-R cells were treated with in c re a s in gconcentration of Tamoxifen […]
As positive control, cells were treated with E2 alone. Cell viability was measured by sulforhodamine B assay (se e Methods). The re su ltswere re p o rte das percentage of viable cells compared to untreated cells, considered as maximum viability (100%). […]
(a ) * denotes statistically significant values compared with untreated cells […]
(1 picture or pasted object on this page, not shown here)

[2] = 48 h treatment, read-out: IC50 MCF7 48h
[3] = 72 h treatment, read-out: IC50 MCF7

SMILES: O=C1C2C3C=CC(C3)C2C(=O)N1OCCN1CCN(c2ccc(Cl)c(Cl)c2)CC1 (centres unmarked) [SER68]
- Ki [1]: 1.13 ± 0.16 nM
- IC50 (MCF7 cells; [2]): 131 ± 13.8 µM
- IC50 (MCF7 cells; [3]): 54.2 ± 10.2 µM
- effect on MCF7-R cells if used alone (viability) (MCF7-R cells): neither
- effect on viability of MCF7-R cells in co-treatment with Tamoxifen (MCF7-R cells): significantly reduced viability

SMILES: N#CN=C(NCCCN1CCN(C(c2ccc(F)cc2)c2ccc(F)cc2)CC1)c1ccccn1 [SER79]
- Ki [1]: 21.4 ± 1.22 nM
- reduction of MCF7 cell viability (MCF7 cells; 50 μM, 72 h): ≈ 70%
- IC50 (MCF7 cells; [2]): 85.1 ± 13.4 µM
- IC50 (MCF7 cells; [3]): 24.1 µM
- effect on MCF7-R cells if used alone (viability) (MCF7-R cells): neither
- effect on viability of MCF7-R cells in co-treatment with Tamoxifen (MCF7-R cells): No significant effect

From publication PMC8845285, “Serotoninergic receptor ligands improve Tamoxifen effectiveness on breast cancer cells” (BMC Cancer, 2022)
